Measurements from patent publication EP4752149A1, “OXYGEN-CONTAINING FUSED TRICYCLIC DERIVATIVE, AND PREPARATION METHOD THEREFOR AND USE THEREOF” (Tuojie Biotech (Shanghai) Co., Ltd., priority 2023, dated 2025).

How the values were obtained:
[1] = test system: Triple-negative breast cancer cells (HCC1806); experiment: Inhibitory activity against triple-negative breast cancer cells (HCC1806), CTG cell viability; assay type: cell-based; settings: Homo sapiens, 168 h, 7 days with compound
Protocol: Triple-negative breast cancer cells (HCC1806, Nanjing Cobioer Biosciences Co., Ltd.) were cultured using an RPMI 1640 culture medium containing 10% FBS in a cell incubator (37 °C, 5% CO2). On day one, the cells were plated in a 384-well plate at a cell concentration of 200 cells/well and cultured overnight in an incubator. On day two, the cells were treated with compounds. The highest compound concentration was 10 µM and was diluted 3-fold to obtain 9 concentrations, and the final concentration of DMSO was 0.2%. After the cells were cultured in the incubator for another 7 days, the cell viability was tested using a CTG Cell Viability Detection Reagent (MCE); the testing method was consistent with the method provided by the kit. Data were processed using XLfit, and IC50 was calculated. [formula] X: the logarithm of the compound concentration; Y: inhibition%. Table 4. The IC50 (nM) of compounds of the present disclosure against HCC1806

[2] = test system: Ovarian cancer cells (OVCAR3); experiment: Inhibitory activity against ovarian cancer cells (OVCAR3), CTG cell viability; assay type: cell-based; settings: Homo sapiens, OVCAR-3, 168 h, 7 days with compound
Protocol: Ovarian cancer cells (OVCAR3) were cultured using an RPMI 1640 culture medium containing 10% FBS in a cell incubator (37 °C, 5% CO2). On day one, the cells were plated in a 384-well plate at a cell concentration of 800 cells/well and cultured overnight in an incubator. On day two, the cells were treated with compounds. The highest compound concentration was 10 µM and was diluted 3-fold to obtain 9 concentrations, and the final concentration of DMSO was 0.1%. After the cells were cultured in the incubator for another 7 days, the cell viability was tested using a CTG Cell Viability Detection Reagent (MCE); the testing method was consistent with the method provided by the kit. Data were processed using GraphPad Prism 8, and IC50 was calculated. [formula] X: the logarithm of the compound concentration; Y: inhibition%. Table 2. The IC50 (nM) of compounds of the present disclosure against OVCAR3

| SMILES | IC50 [1] | IC50 [2] |
| --- | --- | --- |
| CNS(=O)(=O)c1ccc(Nc2ncc(Cl)c(-c3cc(F)c4nc(C(C)(C)O)n5c4c3OC[C@@H]5C)n2)c(F)c1 [Example 7, (S)-4-((5-Chloro-4-(8-fluoro-2-(2-hydroxypropan-2-yl)-3-methyl-3,4-dihydro-5-oxa-1,2a-diazaacenaphthylen-6-yl)pyrimidin-2-yl)amino)-3-fluoro-N-methylbenzenesulfonamide] | 342 nM | 670 nM |
| COC(C)c1nc2c(F)cc(-c3nc(Nc4ccc(N5CCOCC5=O)cc4F)ncc3F)c3c2n1[C@@H](C)CO3 (stereo partly drawn) [Example 22, 4-(3-Fluoro-4-((5-fluoro-4-((3S)-8-fluoro-2-(1-methoxyethyl)-3-methyl-3,4-dihydro-5-oxa-1,2a-diazaacenaphthylen-6-yl)pyrimidin-2-yl)amino)phenyl)morpholin-3-one] | 406 nM | 825 nM |
| C[C@H]1COc2c(-c3nc(Nc4ccc(N5CCNCC5=O)cc4F)ncc3Cl)cc(F)c3nc(C(C)(C)O)n1c23 [Example 23, (S)-1-(4-((5-Chloro-4-(8-fluoro-2-(2-hydroxypropan-2-yl)-3-methyl-3,4-dihydro-5-oxa-1,2a-diazaacenaphthylen-6-yl)pyrimidin-2-yl)amino)3-fluorophenyl)piperazin-2-one] | 386 nM |  |
| C[C@H]1COc2c(-c3nc(Nc4ccc(N5CCOCC5=O)c(Cl)c4)ncc3Cl)cc(F)c3nc(C(C)(C)O)n1c23 [Example 25, (S)-4-(2-Chloro-4-((5-chloro-4-(8-fluoro-2-(2-hydroxypropan-2-yl)-3-methyl-3,4-dihydro-5-oxa-1,2a-diazaacenaphthylen-6-yl)pyrimidin-2-yl)amino)phenyl)morpholin-3-one] |  | 409 nM |
| COCc1nc2c(F)cc(-c3nc(Nc4ccc(N5CCOCC5=O)cc4F)ncc3F)c3c2n1[C@@H](C)CO3 [Example 26, (S)-4-(3-Fluoro-4-((5-fluoro-4-(8-fluoro-2-(methoxymethyl)-3-methyl-3,4-dihydro-5-oxa-1,2a-diazaacenaphthylen-6-yl)pyrimidin-2-yl)amino)phenyl)morpholin-3-one] |  | 517 nM |
| CC(C)c1nc2c(F)cc(-c3nc(Nc4ccc(N5CCOCC5=O)cc4F)ncc3F)c3c2n1[C@@H](C)CO3 [Example 27, (S)-4-(3-Fluoro-4-((5-fluoro-4-(8-fluoro-2-isopropyl-3-methyl-3,4-dihydro-5-oxa-1,2a-diazaacenaphthylen-6-yl)pyrimidin-2-yl)amino)phenyl)morpholin-3-one] | 303 nM | 572 nM |
| C[C@H]1COc2c(-c3nc(Nc4ccc(CC#N)cc4)ncc3Cl)cc(F)c3nc(C(C)(C)O)n1c23 [Example 29] |  | 335 nM |
| CCN1CCN(C(=O)c2ccc(Nc3ncc(Cl)c(-c4cc(F)c5nc(C(C)(C)O)n6c5c4OC[C@@H]6C)n3)cc2F)CC1 [Example 32, (S)-(4-((5-Chloro-4-(8-fluoro-2-(2-hydroxypropan-2-yl)-3-methyl-3,4-dihydro-5-oxa-1,2a-diazaacenaphthylen-6-yl)pyrimidin-2-yl)amino)-2-fluorophenyl)(4-ethylpiperazin-1-yl)methanone] |  | 426 nM |
| C[C@H]1COc2c(-c3nc(Nc4ccc(C(=O)N5CC[C@H](N(C)C)C5)c(Cl)c4)ncc3Cl)cc(F)c3nc(C(C)(C)O)n1c23 [Example 36, (2-Chloro-4-((5-chloro-4-((S)-8-fluoro-2-(2-hydroxypropan-2-yl)-3-methyl-3,4-dihydro-5-oxa-1,2a-diazaacenaphthylen-6-yl)pyrimidin-2-yl)amino)phenyl)((S)-3-(dimethylamino)pyrrolidin-1-yl)methanone] |  | 961 nM |
| C[C@H]1COc2c(-c3nc(Nc4ccc(C(=O)N5CC[C@@H](N(C)C)C5)c(Cl)c4)ncc3Cl)cc(F)c3nc(C(C)(C)O)n1c23 [Example 38, (2-Chloro-4-((5-chloro-4-((S)-8-fluoro-2-(2-hydroxypropan-2-yl)-3-methyl-3,4-dihydro-5-oxa-1,2a-diazaacenaphthylen-6-yl)pyrimidin-2-yl)amino)phenyl)((R)-3-(dimethylamino)pyrrolidin-1-yl)methanone] |  | 690 nM |
| C[C@H]1COc2c(-c3nc(Nc4ccc(C(=O)N5CC[C@H](N(C)C)C5)cc4)ncc3Cl)cc(F)c3nc(C(C)(C)O)n1c23 [Example 40, (4-((5-Chloro-4-((S)-8-fluoro-2-(2-hydroxypropan-2-yl)-3-methyl-3,4-dihydro-5-oxa-1,2a-diazaacenaphthylen-6-yl)pyrimidin-2-yl)amino)phenyl)((S)-3-(dimethylamino)pyrrolidin-1-yl)methanone] |  | 364 nM |
| C[C@H]1COc2c(-c3nc(Nc4ccc(C(=O)N5CC[C@@H](N(C)C)C5)cc4)ncc3Cl)cc(F)c3nc(C(C)(C)O)n1c23 [Example 42, (4-((5-Chloro-4-((S)-8-fluoro-2-(2-hydroxypropan-2-yl)-3-methyl-3,4-dihydro-5-oxa-1,2a-diazaacenaphthylen-6-yl)pyrimidin-2-yl)amino)phenyl)((R)-3-(dimethylamino)pyrrolidin-1-yl)methanone] |  | 674 nM |
| C[C@H]1COc2c(-c3nc(Nc4ccc(N5CCOCC5=O)cc4F)ncc3Cl)cc(F)c3nc(C4(O)CCCC4)n1c23 [Example 44, (S)-4-(4-((5-Chloro-4-(8-fluoro-2-(1-hydroxycyclopentyl)-3-methyl-3,4-dihydro-5-oxa-1,2a-diazaacenaphthylen-6-yl)pyrimidin-2-yl)amino)-3-fluorophenyl)morpholin-3-one] | 199 nM | 574 nM |

Other lines, results leading:

| IC50 [1] | IC50 [2] | SMILES |
| --- | --- | --- |
| 172 nM | 197 nM | CNC(=O)c1ccc(Nc2ncc(F)c(-c3cc(F)c4nc(C(C)(C)O)n5c4c3OC[C@@H]5C)n2)cc1 [Example 3, (S)-4-((5-Fluoro-4-(8-fluoro-2-(2-hydroxypropan-2-yl)-3-methyl-3,4-dihydro-5-oxa-1,2a-diazaacenaphthylen-6-yl)pyrimidin-2-yl)amino)-N-methylbenzamide] |
| 278 nM | 348 nM | C[C@H]1COc2c(-c3nc(Nc4ccc(N5CCOCC5=O)cc4F)ncc3F)cc(F)c3nc(C(C)(C)O)n1c23 [Example 4, (S)-4-(3-Fluoro-4-((5-fluoro-4-(8-fluoro-2-(2-hydroxypropan-2-yl)-3-methyl-3,4-dihydro-5-oxa-1,2a-diazaacenaphthylen-6-yl)pyrimidin-2-yl)amino)phenyl)morpholin-3-one] |
|  | 154 nM | C[C@H]1COc2c(-c3nc(Nc4ccc(S(C)(=N)=O)cc4)ncc3F)cc(F)c3nc(C(C)(C)O)n1c23 (stereo partly drawn) [Example 17, (4-((5-Fluoro-4-((S)-8-fluoro-2-(2-hydroxypropan-2-yl)-3-methyl-3,4-dihydro-5-oxa-1,2a-diazaacenaphthylen-6-yl)pyrimidin-2-yl)amino)phenyl)(methyl)sulfonimide] |
|  | 103 nM | C[C@H]1COc2c(-c3nc(Nc4ccc(N5CCOCC5=O)cc4)ncc3F)cc(F)c3nc(C(C)(C)O)n1c23 [Example 18, (S)-4-(4-((5-Fluoro-4-(8-fluoro-2-(2-hydroxypropan-2-yl)-3-methyl-3,4-dihydro-5-oxa-1,2a-diazaacenaphthylen-6-yl)pyrimidin-2-yl)amino)phenyl)morpholin-3-one] |
|  | 276 nM | C[C@H]1COc2c(-c3nc(Nc4ccc(S(C)(=N)=O)cc4)ncc3Cl)cc(F)c3nc(C(C)(C)O)n1c23 (stereo partly drawn) [Example 19, (4-((5-Chloro-4-((S)-8-fluoro-2-(2-hydroxypropan-2-yl)-3-methyl-3,4-dihydro-5-oxa-1,2a-diazaacenaphthylen-6-yl)pyrimidin-2-yl)amino)phenyl)(methyl)sulfinamide] |
|  | 260 nM | CC(O)c1nc2c(F)cc(-c3nc(Nc4ccc(N5CCOCC5=O)cc4F)ncc3F)c3c2n1[C@@H](C)CO3 (stereo partly drawn) [Example 21, 4-(3-Fluoro-4-((5-fluoro-4-((3S)-8-fluoro-2-(1-hydroxyethyl)-3-methyl-3,4-dihydro-5-oxa-1,2a-diazaacenaphthylen-6-yl)pyrimidin-2-yl)amino)phenyl)morpholin-3-one] |
|  | 255 nM | C[C@H]1COc2c(-c3nc(Nc4ccc(N5CCOCC5=O)c(F)c4)ncc3Cl)cc(F)c3nc(C(C)(C)O)n1c23 [Example 24, (S)-4-(4-((5-Chloro-4-(8-fluoro-2-(2-hydroxypropan-2-yl)-3-methyl-3,4-dihydro-5-oxa-1,2a-diazaacenaphthylen-6-yl)pyrimidin-2-yl)amino)2-fluorophenyl)morpholin-3-one] |
|  | 137 nM | C[C@H]1COc2c(-c3nc(Nc4ccc(N5CCOCC5=O)cc4F)ncc3F)cc(F)c3nc(C4(O)CCC4)n1c23 [Example 28, (S)-4-(3-Fluoro-4-((5-fluoro-4-(8-fluoro-2-(1-hydroxycyclobutyl)-3-methyl-3,4-dihydro-5-oxa-1,2a-diazaacenaphthylen-6-yl)pyrimidin-2-yl)amino)phenyl)morpholin-3-one] |
|  | 202 nM | C[C@H]1COc2c(-c3nc(Nc4ccc(C(=O)N5CC[C@H](N(C)C)C5)c(F)c4)ncc3Cl)cc(F)c3nc(C(C)(C)O)n1c23 [Example 35, (4-((5-Chloro-4-((S)-8-fluoro-2-(2-hydroxypropan-2-yl)-3-methyl-3,4-dihydro-5-oxa-1,2a-diazaacenaphthylen-6-yl)pyrimidin-2-yl)amino)2-fluorophenyl)((S)-3-(dimethylamino)pyrrolidin-1-yl)methanone] |
